Experimental data taken from PubChem BioAssay (NCI).
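All cell lines were grown in 96-well plates and treated with compound for 48 hours. TGI: concentration producing complete growth inhibition.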

How the values were obtained:
Assay in all cases: NCI tumour cell line growth inhibition, 48 h
[1] = system: SK-MEL-28 melanoma
[2] = system: SK-OV-3 ovarian
[3] = system: PC-3 prostate
[4] = system: NCI/ADR-RES ovarian
[5] = system: CAKI-1 renal
[6] = system: OVCAR-4 ovarian
[7] = system: DU-145 prostate
[8] = system: EKVX NSCLC
[9] = system: RXF 393 renal
[10] = system: M14 melanoma
[11] = system: MALME-3M melanoma
[12] = system: HT29 colon
[13] = system: IGROV1 ovarian
[14] = system: NCI-H460 lung
[15] = system: OVCAR-5 ovarian
[16] = system: A498 renal
[17] = system: SR leukemia
[18] = system: OVCAR-3 ovarian
[19] = system: SW-620 colon
[20] = system: OVCAR-8 ovarian

Molecule `COC1(OC)C2(Cl)CCC1(Cl)C(OC(C)=O)C2` (stereo unspecified) has a TGI [1] greater than 100 µM, a TGI [2] greater than 100 µM and a TGI [3] greater than 100 µM. The TGI [4] was greater than 100 µM, the TGI [5] was greater than 100 µM and the TGI [6] was greater than 100 µM. For the same molecule, the TGI [7] was greater than 100 µM, the TGI [8] was greater than 100 µM and the TGI [9] was greater than 100 µM. For the same molecule, the TGI [10] was greater than 100 µM, the TGI [11] was greater than 100 µM and the TGI [12] was greater than 100 µM. The TGI [13] was greater than 100 µM, the TGI [14] was greater than 100 µM and the TGI [15] was greater than 100 µM. It also gave a TGI [16] greater than 100 µM, a TGI [17] greater than 100 µM and a TGI [18] greater than 100 µM. It also gave a TGI [19] greater than 100 µM and a TGI [20] greater than 100 µM.
Molecule `Oc1cc(O)c2c(c1)O[C@H](c1cc(O)c(O)c(O)c1)[C@H](O)C2` has a TGI [1] greater than 100 µM, a TGI [2] of 56.7 µM and a TGI [3] of 42.9 µM. It also gave a TGI [4] of 63.8 µM, a TGI [5] greater than 100 µM and a TGI [6] of 46.6 µM. The TGI [7] was greater than 100 µM, the TGI [9] was 29.6 µM and the TGI [10] was greater than 100 µM. For the same molecule, the TGI [11] was greater than 100 µM, the TGI [13] was 41.9 µM and the TGI [14] was 38.5 µM. It also gave a TGI [15] of 32 µM, a TGI [16] greater than 100 µM and a TGI [17] of 27.6 µM. For the same molecule, the TGI [18] was greater than 100 µM, the TGI [19] was 32.9 µM and the TGI [20] was 29.6 µM.
For `O=C1SCC(O)=C1/C=N/Nc1nc2ccccc2o1`, the TGI [1] was greater than 100 µM, the TGI [2] was 82.8 µM and the TGI [3] was 88.6 µM. It also gave a TGI [4] of 43.3 µM, a TGI [5] greater than 100 µM and a TGI [6] greater than 100 µM. The TGI [7] was greater than 100 µM, the TGI [8] was 96.1 µM and the TGI [9] was 70.7 µM. The TGI [10] was 57.5 µM, the TGI [11] was greater than 100 µM and the TGI [12] was 83.7 µM. It also gave a TGI [14] greater than 100 µM, a TGI [15] greater than 100 µM and a TGI [16] greater than 100 µM. The TGI [17] was greater than 100 µM, the TGI [18] was 65.5 µM and the TGI [19] was greater than 100 µM. For the same molecule, the TGI [20] was 46.6 µM.
`COc1ccccc1N1C(=O)/C(=C\c2cccc(Oc3ccccc3)c2)SC1c1ccccc1` (stereo unspecified) was tested, and the TGI [1] was greater than 100 µM, the TGI [2] was greater than 100 µM and the TGI [3] was greater than 100 µM. For the same molecule, the TGI [4] was greater than 100 µM, the TGI [5] was greater than 100 µM and the TGI [6] was greater than 100 µM. It also gave a TGI [7] greater than 100 µM, a TGI [8] greater than 100 µM and a TGI [9] greater than 100 µM. The TGI [10] was greater than 100 µM, the TGI [11] was greater than 100 µM and the TGI [12] was greater than 100 µM. The TGI [13] was greater than 100 µM, the TGI [14] was greater than 100 µM and the TGI [15] was greater than 100 µM. It also gave a TGI [16] greater than 100 µM, a TGI [17] greater than 100 µM and a TGI [18] greater than 100 µM. For the same molecule, the TGI [19] was 71 µM and the TGI [20] was greater than 100 µM.
For `CCOC(=O)C(Cl)(NC(=O)c1ccc(F)cc1)C(F)(F)F` (stereo unspecified), the TGI [1] was greater than 100 µM, the TGI [2] was greater than 100 µM and the TGI [3] was greater than 100 µM. It also gave a TGI [4] greater than 100 µM, a TGI [5] greater than 100 µM and a TGI [6] greater than 100 µM. For the same molecule, the TGI [7] was greater than 100 µM, the TGI [8] was greater than 100 µM and the TGI [9] was greater than 100 µM. The TGI [10] was greater than 100 µM, the TGI [11] was greater than 100 µM and the TGI [12] was greater than 100 µM. The TGI [13] was greater than 100 µM, the TGI [14] was greater than 100 µM and the TGI [15] was greater than 100 µM. For the same molecule, the TGI [16] was greater than 100 µM, the TGI [17] was greater than 100 µM and the TGI [18] was greater than 100 µM. For the same molecule, the TGI [19] was greater than 100 µM and the TGI [20] was greater than 100 µM.
In the case of `Cc1cccc2c(N)c3cccc(C(=O)NCCCNCCN)c3nc12`, the TGI [1] is reported as 29.4 µM, the TGI [2] is reported as greater than 62.8 µM and the TGI [3] is reported as 35.3 µM. It also gave a TGI [4] of 77.9 µM, a TGI [5] of 26.3 µM and a TGI [6] of 10.5 µM. For the same molecule, the TGI [7] was 17.2 µM, the TGI [8] was 33.2 µM and the TGI [9] was 18.6 µM. For the same molecule, the TGI [10] was 28.4 µM, the TGI [11] was 19.9 µM and the TGI [12] was 16.3 µM. For the same molecule, the TGI [13] was 28.9 µM, the TGI [14] was 11.6 µM and the TGI [15] was 38.4 µM. For the same molecule, the TGI [16] was 30.1 µM, the TGI [17] was greater than 82.9 µM and the TGI [18] was 63.2 µM. It also gave a TGI [19] of 33.3 µM and a TGI [20] of 23.6 µM.
`O=C1NC(Nc2cccc(Cl)c2)=N/C1=C\c1ccc(Cl)c(Cl)c1` showed a TGI [1] of 32.1 µM, a TGI [2] of 27.5 µM and a TGI [3] of 13.3 µM. The TGI [4] was 16.2 µM, the TGI [5] was 18.4 µM and the TGI [6] was 5.49 µM. For the same molecule, the TGI [7] was 20.6 µM, the TGI [8] was 12.2 µM and the TGI [9] was 10.4 µM. It also gave a TGI [10] of 14.9 µM, a TGI [11] of 27.8 µM and a TGI [12] of 19.6 µM. The TGI [13] was 18.7 µM, the TGI [14] was 5.67 µM and the TGI [15] was 21.8 µM. It also gave a TGI [16] of 16.3 µM, a TGI [17] of 7.37 µM and a TGI [18] of 19.7 µM. The TGI [19] was 19.6 µM and the TGI [20] was 16 µM.
In the case of `CC(C(=O)N1c2ccccc2Sc2ccccc21)N1c2ccccc2Sc2ccccc21` (stereo unspecified), the TGI [1] is reported as greater than 100 µM, the TGI [2] is reported as greater than 100 µM and the TGI [3] is reported as greater than 100 µM. The TGI [4] was greater than 100 µM, the TGI [6] was greater than 100 µM and the TGI [7] was greater than 100 µM. The TGI [8] was greater than 100 µM, the TGI [9] was greater than 100 µM and the TGI [10] was greater than 100 µM. It also gave a TGI [11] greater than 100 µM, a TGI [12] greater than 100 µM and a TGI [13] greater than 100 µM. For the same molecule, the TGI [14] was greater than 100 µM, the TGI [15] was greater than 100 µM and the TGI [16] was greater than 100 µM. It also gave a TGI [17] greater than 100 µM, a TGI [18] greater than 100 µM and a TGI [19] greater than 100 µM. For the same molecule, the TGI [20] was greater than 100 µM.
In the case of `CCOC(=O)c1c(SC(=O)/C=C/c2ccccc2)n(-c2ccccc2)c(=S)n(-c2ccccc2)c1=O`, the TGI [1] is reported as greater than 100 µM, the TGI [2] is reported as greater than 100 µM and the TGI [3] is reported as greater than 100 µM. It also gave a TGI [4] greater than 100 µM, a TGI [5] greater than 100 µM and a TGI [6] greater than 100 µM. For the same molecule, the TGI [7] was greater than 100 µM, the TGI [8] was greater than 100 µM and the TGI [9] was greater than 100 µM. The TGI [10] was greater than 100 µM, the TGI [11] was greater than 100 µM and the TGI [12] was greater than 100 µM. It also gave a TGI [13] greater than 100 µM, a TGI [14] greater than 100 µM and a TGI [15] greater than 100 µM. It also gave a TGI [16] greater than 100 µM, a TGI [17] greater than 100 µM and a TGI [18] greater than 100 µM. It also gave a TGI [19] greater than 100 µM and a TGI [20] greater than 100 µM.
With `c1ccc2c(c1)nc1n2CNCC1` the TGI [1] was greater than 100 µM, the TGI [2] was greater than 100 µM and the TGI [3] was greater than 100 µM. For the same molecule, the TGI [4] was greater than 100 µM, the TGI [5] was greater than 100 µM and the TGI [6] was greater than 100 µM. It also gave a TGI [7] greater than 100 µM, a TGI [8] greater than 100 µM and a TGI [9] greater than 100 µM. For the same molecule, the TGI [10] was greater than 100 µM, the TGI [11] was greater than 100 µM and the TGI [12] was greater than 100 µM. It also gave a TGI [13] greater than 100 µM, a TGI [14] greater than 100 µM and a TGI [15] greater than 100 µM. For the same molecule, the TGI [16] was greater than 100 µM, the TGI [17] was greater than 100 µM and the TGI [18] was greater than 100 µM. It also gave a TGI [19] greater than 100 µM and a TGI [20] greater than 100 µM.
`O=C(c1ccccc1)c1c2ccccn2c2cccc[n+]12` showed a TGI [1] greater than 100 µM, a TGI [2] greater than 100 µM and a TGI [3] greater than 100 µM. For the same molecule, the TGI [4] was greater than 100 µM, the TGI [5] was greater than 100 µM and the TGI [6] was greater than 100 µM. For the same molecule, the TGI [7] was greater than 100 µM, the TGI [8] was greater than 100 µM and the TGI [9] was greater than 100 µM. The TGI [10] was greater than 100 µM, the TGI [11] was greater than 100 µM and the TGI [12] was greater than 100 µM. For the same molecule, the TGI [13] was greater than 100 µM, the TGI [14] was greater than 100 µM and the TGI [15] was greater than 100 µM. It also gave a TGI [16] greater than 100 µM, a TGI [17] greater than 100 µM and a TGI [18] greater than 100 µM. For the same molecule, the TGI [19] was greater than 100 µM and the TGI [20] was greater than 100 µM.
`COC12C=CC(CC1)C(C)(C)C2=O` (stereo unspecified) was tested, and the TGI [1] was greater than 100 µM, the TGI [2] was greater than 100 µM and the TGI [3] was greater than 100 µM. For the same molecule, the TGI [4] was greater than 100 µM, the TGI [5] was greater than 100 µM and the TGI [6] was greater than 100 µM. The TGI [7] was greater than 100 µM, the TGI [8] was greater than 100 µM and the TGI [9] was greater than 100 µM. The TGI [10] was greater than 100 µM, the TGI [11] was greater than 100 µM and the TGI [12] was greater than 100 µM. The TGI [13] was greater than 100 µM, the TGI [14] was greater than 100 µM and the TGI [15] was greater than 100 µM. For the same molecule, the TGI [16] was greater than 100 µM, the TGI [17] was greater than 100 µM and the TGI [18] was greater than 100 µM. It also gave a TGI [19] greater than 100 µM and a TGI [20] greater than 100 µM.
